Data as given in the supplement of paper PMC10307832.

How the values were obtained:
Assay in all cases: relative viability (nuclei count vs DMSO), 5 days (fraction); higher = more cells survive
[1] = compound: C1CC(C1)(C(=O)O)C(=O)O.[NH2-].[NH2-].[Pt+2] [Carboplatin] + Cc1nc(NC(=O)N2CCC[C@H]2C(N)=O)sc1-c1ccnc(C(C)(C)C(F)(F)F)c1 [Alpelisib] (partner 2 µM)
How it was run: (§1)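 Relative viability equals treated-well nuclei counts divided by vehicle-well nuclei counts. Counts came from 4× images of lung cancer cell lines grown in 1536-well plates for 5 days after pin-tool dosing on the day after seeding. Dosing used one drug alone or a fixed anchor-drug dose plus five library-drug doses (not always all listed) in √10 steps, and values are medians of duplicate plates.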

[2] = compound: NS(=O)(=O)OC[C@@H]1C[C@@H](n2ccc3c(N[C@H]4CCc5ccccc54)ncnc32)C[C@@H]1O [MLN4924] + Cc1nc(Nc2ncc(C(=O)Nc3c(C)cccc3Cl)s2)cc(N2CCN(CCO)CC2)n1 [Dasatinib] (partner 0.075 µM)
How it was run: as §1

[3] = compound: CC[C@H](C)N1C=C(C2=C(C=C(C=C21)C3=CN=C(C=C3)N4CCNCC4)C(=O)NCC5=C(C=C(NC5=O)C)C)C [GSK126] + O=C(CCCCCCC(=O)Nc1ccccc1)NO [Vorinostat] (partner 1 µM)
How it was run: as §1

[4] = compound: CC[C@H](C)N1C=C(C2=C(C=C(C=C21)C3=CN=C(C=C3)N4CCNCC4)C(=O)NCC5=C(C=C(NC5=O)C)C)C [GSK126] + CC(=O)Nc1cccc(-n2c(=O)n(C3CC3)c(=O)c3c(Nc4ccc(I)cc4F)n(C)c(=O)c(C)c32)c1 [Trametinib] (partner 0.02 µM)
How it was run: as §1

| Cell Line | relative viability ([1]; first compound 0.08 µM) | relative viability ([1]; first compound 0.253 µM) | relative viability ([1]; first compound 0.8 µM) | relative viability ([1]; first compound 2.53 µM) | relative viability ([1]; first compound 8 µM) | relative viability ([2]; first compound 0.04 µM) | relative viability ([2]; first compound 0.1265 µM) | relative viability ([2]; first compound 0.4 µM) | relative viability ([2]; first compound 1.265 µM) | relative viability ([2]; first compound 4 µM) | relative viability ([3]; first compound 0.08 µM) | relative viability ([3]; first compound 0.253 µM) | relative viability ([3]; first compound 0.8 µM) | relative viability ([3]; first compound 2.53 µM) | relative viability ([3]; first compound 8 µM) | relative viability ([4]; first compound 0.08 µM) | relative viability ([4]; first compound 0.253 µM) | relative viability ([4]; first compound 0.8 µM) | relative viability ([4]; first compound 2.53 µM) | relative viability ([4]; first compound 8 µM) |
| --- | --- | --- | --- | --- | --- | --- | --- | --- | --- | --- | --- | --- | --- | --- | --- | --- | --- | --- | --- | --- |
| NCI-H1703 | 0.373 | 0.335 | 0.417 | 0.407 | 0.421 | – | – | – | – | – | – | – | – | – | – | – | – | – | – | – |
| NCI-H1793 | 0.874 | 0.645 | 0.561 | 0.751 | 0.588 | 0.384 | 0.366 | 0.408 | 0.345 | 0.325 | 0.841 | 0.703 | 0.717 | 0.825 | 0.671 | 0.432 | 0.423 | 0.457 | 0.384 | 0.338 |
| NCI-H522 | – | – | – | – | – | 0.845 | 0.863 | 0.652 | 0.546 | 0.437 | 0.888 | 0.887 | 0.954 | 1.04 | 0.92 | 0.773 | 0.716 | 0.647 | 0.654 | 0.829 |
| LOU-NH91 | 0.797 | 0.731 | 0.7 | 0.688 | 0.688 | 0.554 | 0.708 | 0.778 | 0.494 | 0.415 | 0.909 | 0.878 | 0.781 | 0.957 | 0.905 | 0.813 | 0.771 | 0.765 | 0.821 | 0.761 |
| NCI-H1355 | 0.885 | 0.866 | 0.843 | 0.687 | 0.721 | 0.715 | 0.792 | 0.767 | 0.481 | 0.216 | 0.635 | 0.612 | 0.667 | 0.602 | 0.657 | 0.435 | 0.412 | 0.4 | 0.421 | 0.468 |
| NCI-H441 | 0.896 | 0.694 | 0.643 | 0.651 | 0.692 | 0.603 | 0.47 | 0.337 | 0.212 | 0.141 | 1.04 | 0.59 | 0.714 | 0.673 | 0.791 | 0.538 | 0.471 | 0.571 | 0.483 | 0.343 |
| NCI-H1395 | 1.18 | 1.03 | 0.768 | 0.68 | 0.578 | 0.474 | 0.493 | 0.552 | 0.507 | 0.331 | 0.655 | 0.731 | 0.715 | 0.855 | 0.743 | 1.07 | 0.955 | 1.05 | 0.994 | 0.964 |
| NCI-H2023 | 0.65 | 0.546 | 0.601 | 0.397 | 0.193 | 0.618 | 0.602 | 0.325 | 0.0611 | 0.0616 | 0.962 | 0.804 | 0.533 | 0.709 | 0.712 | 0.718 | 0.6 | 0.646 | 0.533 | 0.603 |
| NCI-H1666 | 1.16 | 0.909 | 0.855 | 0.773 | 0.543 | 0.898 | 0.781 | 0.503 | 0.238 | 0.28 | 1.15 | 1 | 0.912 | 0.978 | 1.11 | 0.859 | 0.998 | 0.841 | 0.818 | 0.838 |
| NCI-H1648 | – | – | – | – | – | – | – | – | – | – | 0.496 | 0.401 | 0.467 | 0.5 | 0.548 | 0.544 | 0.959 | 0.409 | 0.522 | 0.445 |
| ChaGo-K-1 | – | – | – | – | – | 0.414 | 0.376 | 0.323 | 0.184 | 0.17 | 0.767 | 0.736 | 0.747 | 0.825 | 0.763 | 0.902 | 0.986 | 0.888 | 0.947 | 0.983 |
| Calu-6 | 1 | 0.913 | 1.04 | 0.856 | 0.4 | – | – | – | – | – | – | – | – | – | – | – | – | – | – | – |
| EBC-1 | 0.85 | 0.827 | 0.809 | 0.799 | 0.77 | – | – | – | – | – | – | – | – | – | – | – | – | – | – | – |
| IA-LM | 0.995 | 0.904 | 0.669 | 0.881 | 0.465 | – | – | – | – | – | 1.06 | 0.797 | 0.941 | 0.929 | 0.853 | – | – | – | – | – |
| NCI-H1563 | 1.04 | 0.925 | 0.91 | 0.921 | 0.984 | 0.67 | 0.819 | 0.714 | 0.446 | 0.426 | – | – | – | – | – | – | – | – | – | – |
| NCI-H1299 | 1.06 | 1.11 | 0.997 | 1.02 | 0.909 | – | – | – | – | – | – | – | – | – | – | – | – | – | – | – |
| NCI-H2342 | – | – | – | – | – | 0.343 | 0.344 | 0.339 | 0.354 | 0.355 | 0.82 | 0.753 | 0.74 | 0.725 | 0.857 | 0.786 | 0.739 | 0.815 | 0.869 | 0.984 |
| HCC-44 | 0.904 | 0.887 | 0.733 | 0.717 | 0.635 | – | – | – | – | – | 1.15 | 1.15 | 1.05 | 1.08 | 1.15 | 1.08 | 1.04 | 1.06 | 1.03 | 1.06 |
| ABC-1 | 1.04 | 1.16 | 1.04 | 0.919 | 0.664 | 0.426 | 0.433 | 0.302 | 0.213 | 0.237 | 1.19 | 1.08 | 1.05 | 1.11 | 1.01 | – | – | – | – | – |
| SW 900 | – | – | – | – | – | 0.51 | 0.433 | 0.576 | 0.294 | 0.139 | 0.421 | 0.546 | 0.432 | 0.39 | 0.566 | 0.801 | 0.507 | 0.86 | 0.901 | 0.615 |
| NCI-H1623 | – | – | – | – | – | 0.626 | 0.573 | 0.341 | 0.227 | 0.183 | – | – | – | – | – | – | – | – | – | – |
| A549 | 0.811 | 0.901 | 0.854 | 0.674 | 0.234 | – | – | – | – | – | – | – | – | – | – | – | – | – | – | – |
| NCI-H1792 | 0.802 | 0.634 | 0.515 | 0.444 | 0.6 | 0.725 | 0.819 | 1.03 | 0.902 | 0.762 | – | – | – | – | – | 0.492 | 0.397 | 0.43 | 0.405 | 0.406 |
